From patent US7858806B2, “Crystal form of 5-hydroxy-1-methylhydantoin” (Nippon Zoki Pharmaceutical Co., Ltd., priority 2002, dated 2010) come the findings set out here.

Entries after “also recorded” stand apart in the source; their conditions may differ.

Holding throughout (type): physicochemical
The nature of series [1]: Solubility in water.
A short description of series [2]: Stability of the crystal form.
The nature of series [3]: Adhesion onto solid surface during handling. The settings on record: II-form compared with I-form crystals, after various handlings. How it is done:
In addition, in the II-form crystals of the present invention, the bulk density is higher than in the I-form crystals and the volume for the same weight is small whereby it is now possible to manufacture small tablets and so to provide the tablets which are easily administered to patients. The advantage of high bulk density is also advantageous in terms of storage and handling when production is conducted in an industrial scale. Further, it has been found after various handlings of both II-form crystals and I-form crystals that adhesion onto the solid surface such as glass wall is lower in the II-form crystals than in the I-form crystals. Accordingly, in the case of the II-form crystals, loss during the manufacture can be reduced and labor such as cleaning and checking for removal of adhered things to the manufacturing devices and apparatuses can be reduced as well.

A short description of series [4]: Measurement of bulk density (graduated cylinder, before and after tight packing). As to conditions: 40 g in graduated cylinder; for Bulk Density After Tight Packing: after patting until volume unchanged. How it is done:
Each 40 g of the I-form crystals produced in Reference Example 1 and the II-form crystals produced in Example 2 were placed in a graduated cylinder to measure the volume whereby bulk density was calculated. After that, each graduated cylinder was lightly patted by hand under the same condition until the volume of the dry powder became unchanged so that the crystals were tightly packed. The volume after the tight packing was measured and bulk density was calculated.

In the case of `CN1C(=O)NC(=O)C1O` (stereo not shown) [5-hydroxy-1-methylhydantoin, 5-hydroxy-1-methylimidazolidin-2,4-dione], the solubility in water entry in series [1] was “very highly soluble in water; also recorded: very easily soluble in water”.

As for `CN1C(=O)NC(=O)C1O` (stereo not shown) [II-form crystals, 5-hydroxy-1-methylimidazolidin-2,4-dione], in series [2], the stability entry is on record as “sufficient stability”. Moreover, in series [3], the “adhesion onto the solid surface such as glass wall” value is on record as “lower”. In series [4] (listed as II-form Crystals), the “Bulk Density After Tight Packing” value is given as 0.64 g/mL and the “Bulk Density Before Tight Packing” value is recorded as 0.54 g/mL.

Regarding `CN1C(=O)NC(=O)C1O` (stereo not shown) [I-form crystals, 5-hydroxy-1-methylimidazolidin-2,4-dione, reference compound], in series [4] (listed as I-form Crystals), the “Bulk Density After Tight Packing” value is on record as 0.46 g/mL and the “Bulk Density Before Tight Packing” value is recorded as 0.35 g/mL.
